Results: patent US8921376B2, “Pyrrolopyridines useful as inhibitors of protein kinase” (Vertex Pharmaceuticals Incorporated, priority 2005, dated 2014)

Columns and labels:
Type in all cases: biochemical
JAK3 = target: T1, JAK3 (Homo sapiens, UniProt P52333); experiment: JAK3 inhibition assay (33P incorporation into poly(Glu)4Tyr)
T1 sequence (P52333 1-1124): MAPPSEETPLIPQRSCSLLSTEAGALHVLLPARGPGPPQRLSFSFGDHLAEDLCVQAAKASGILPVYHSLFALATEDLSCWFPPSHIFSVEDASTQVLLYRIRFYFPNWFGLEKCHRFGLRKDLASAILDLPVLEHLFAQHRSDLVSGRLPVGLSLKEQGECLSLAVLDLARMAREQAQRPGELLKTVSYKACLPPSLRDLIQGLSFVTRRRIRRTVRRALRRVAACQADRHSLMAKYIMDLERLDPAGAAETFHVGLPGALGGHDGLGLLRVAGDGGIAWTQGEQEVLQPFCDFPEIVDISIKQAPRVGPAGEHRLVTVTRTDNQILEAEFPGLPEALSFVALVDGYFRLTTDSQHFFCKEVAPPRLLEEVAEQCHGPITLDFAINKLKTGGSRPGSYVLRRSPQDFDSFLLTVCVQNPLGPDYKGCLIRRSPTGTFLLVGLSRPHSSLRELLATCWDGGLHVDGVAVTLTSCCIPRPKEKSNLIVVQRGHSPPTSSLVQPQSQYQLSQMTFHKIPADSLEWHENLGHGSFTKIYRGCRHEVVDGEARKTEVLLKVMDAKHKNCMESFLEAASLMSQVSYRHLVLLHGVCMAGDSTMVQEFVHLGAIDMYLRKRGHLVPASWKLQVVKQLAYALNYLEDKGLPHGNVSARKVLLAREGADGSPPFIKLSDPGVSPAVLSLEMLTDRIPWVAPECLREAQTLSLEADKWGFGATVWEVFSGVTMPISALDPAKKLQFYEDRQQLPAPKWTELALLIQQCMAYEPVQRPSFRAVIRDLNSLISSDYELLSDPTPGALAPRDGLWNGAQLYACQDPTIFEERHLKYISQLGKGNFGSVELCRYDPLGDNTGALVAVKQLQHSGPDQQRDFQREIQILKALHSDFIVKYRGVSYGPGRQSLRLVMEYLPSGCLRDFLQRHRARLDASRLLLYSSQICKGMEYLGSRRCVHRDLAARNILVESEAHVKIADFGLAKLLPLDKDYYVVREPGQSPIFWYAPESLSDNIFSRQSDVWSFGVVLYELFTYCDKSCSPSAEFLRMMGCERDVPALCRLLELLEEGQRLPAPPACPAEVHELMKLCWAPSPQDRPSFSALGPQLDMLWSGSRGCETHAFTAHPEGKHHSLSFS
Outline: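 Human JAK3 at 1 nM phosphorylated 1 μM poly(Glu)4Tyr using 5 μM [33P]ATP in HEPES pH 7.4 buffer with MgCl2, DTT and BSA. Reactions ran 20 min at 25° C. and were stopped with TCA. 33P incorporation was measured by scintillation after glass-fiber filter capture.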

JAK2 = JAK2 (Homo sapiens, UniProt O60674); experiment: JAK2 inhibition assay (as Example 3 with JAK-2 enzyme)
Sequence of JAK2 (O60674 whole entry): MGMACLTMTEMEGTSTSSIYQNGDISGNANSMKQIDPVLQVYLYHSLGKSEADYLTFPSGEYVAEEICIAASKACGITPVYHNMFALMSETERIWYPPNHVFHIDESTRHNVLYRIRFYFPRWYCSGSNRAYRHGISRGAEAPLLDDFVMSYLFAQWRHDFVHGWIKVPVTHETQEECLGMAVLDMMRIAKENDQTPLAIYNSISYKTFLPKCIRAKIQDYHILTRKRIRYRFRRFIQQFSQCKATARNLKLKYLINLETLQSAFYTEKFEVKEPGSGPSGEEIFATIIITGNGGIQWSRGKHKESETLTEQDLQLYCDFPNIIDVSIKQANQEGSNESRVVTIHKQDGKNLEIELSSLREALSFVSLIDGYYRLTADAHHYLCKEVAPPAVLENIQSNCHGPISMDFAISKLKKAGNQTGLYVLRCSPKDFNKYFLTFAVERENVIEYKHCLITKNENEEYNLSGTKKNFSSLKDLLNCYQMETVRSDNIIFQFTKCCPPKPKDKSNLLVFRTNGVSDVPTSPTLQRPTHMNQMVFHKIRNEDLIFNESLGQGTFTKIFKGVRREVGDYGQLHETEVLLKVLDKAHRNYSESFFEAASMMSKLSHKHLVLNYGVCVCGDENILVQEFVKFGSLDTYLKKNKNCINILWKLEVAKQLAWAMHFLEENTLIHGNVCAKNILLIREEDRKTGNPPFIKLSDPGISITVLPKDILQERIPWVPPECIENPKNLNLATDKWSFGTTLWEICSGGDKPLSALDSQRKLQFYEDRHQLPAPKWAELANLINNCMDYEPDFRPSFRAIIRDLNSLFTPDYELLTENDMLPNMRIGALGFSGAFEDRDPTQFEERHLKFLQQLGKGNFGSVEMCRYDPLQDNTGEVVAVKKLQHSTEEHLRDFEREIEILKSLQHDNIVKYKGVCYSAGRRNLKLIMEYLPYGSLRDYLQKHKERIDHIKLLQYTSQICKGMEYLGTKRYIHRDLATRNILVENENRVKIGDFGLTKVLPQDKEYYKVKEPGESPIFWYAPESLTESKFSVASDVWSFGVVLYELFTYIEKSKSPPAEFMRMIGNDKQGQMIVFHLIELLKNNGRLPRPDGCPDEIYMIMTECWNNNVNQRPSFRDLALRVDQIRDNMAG
Outline: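 Radiometric JAK2 kinase assay: poly(Glu)4Tyr substrate at final 15 μM, ATP at final 12 μM with [33P]; buffer 100 mM HEPES pH 7.4, 1 mM DTT, 10 mM MgCl2, 25 mM NaCl, 0.01% BSA. 20 min at 25 °C, TCA-stopped, 33P incorporation counted after filter capture.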

ROCK I = ROCK I (Homo sapiens, UniProt Q13464); experiment: ROCK-I inhibition assay (radioactive enzyme assay, MBP substrate)
Sequence of ROCK I (Q13464 whole entry): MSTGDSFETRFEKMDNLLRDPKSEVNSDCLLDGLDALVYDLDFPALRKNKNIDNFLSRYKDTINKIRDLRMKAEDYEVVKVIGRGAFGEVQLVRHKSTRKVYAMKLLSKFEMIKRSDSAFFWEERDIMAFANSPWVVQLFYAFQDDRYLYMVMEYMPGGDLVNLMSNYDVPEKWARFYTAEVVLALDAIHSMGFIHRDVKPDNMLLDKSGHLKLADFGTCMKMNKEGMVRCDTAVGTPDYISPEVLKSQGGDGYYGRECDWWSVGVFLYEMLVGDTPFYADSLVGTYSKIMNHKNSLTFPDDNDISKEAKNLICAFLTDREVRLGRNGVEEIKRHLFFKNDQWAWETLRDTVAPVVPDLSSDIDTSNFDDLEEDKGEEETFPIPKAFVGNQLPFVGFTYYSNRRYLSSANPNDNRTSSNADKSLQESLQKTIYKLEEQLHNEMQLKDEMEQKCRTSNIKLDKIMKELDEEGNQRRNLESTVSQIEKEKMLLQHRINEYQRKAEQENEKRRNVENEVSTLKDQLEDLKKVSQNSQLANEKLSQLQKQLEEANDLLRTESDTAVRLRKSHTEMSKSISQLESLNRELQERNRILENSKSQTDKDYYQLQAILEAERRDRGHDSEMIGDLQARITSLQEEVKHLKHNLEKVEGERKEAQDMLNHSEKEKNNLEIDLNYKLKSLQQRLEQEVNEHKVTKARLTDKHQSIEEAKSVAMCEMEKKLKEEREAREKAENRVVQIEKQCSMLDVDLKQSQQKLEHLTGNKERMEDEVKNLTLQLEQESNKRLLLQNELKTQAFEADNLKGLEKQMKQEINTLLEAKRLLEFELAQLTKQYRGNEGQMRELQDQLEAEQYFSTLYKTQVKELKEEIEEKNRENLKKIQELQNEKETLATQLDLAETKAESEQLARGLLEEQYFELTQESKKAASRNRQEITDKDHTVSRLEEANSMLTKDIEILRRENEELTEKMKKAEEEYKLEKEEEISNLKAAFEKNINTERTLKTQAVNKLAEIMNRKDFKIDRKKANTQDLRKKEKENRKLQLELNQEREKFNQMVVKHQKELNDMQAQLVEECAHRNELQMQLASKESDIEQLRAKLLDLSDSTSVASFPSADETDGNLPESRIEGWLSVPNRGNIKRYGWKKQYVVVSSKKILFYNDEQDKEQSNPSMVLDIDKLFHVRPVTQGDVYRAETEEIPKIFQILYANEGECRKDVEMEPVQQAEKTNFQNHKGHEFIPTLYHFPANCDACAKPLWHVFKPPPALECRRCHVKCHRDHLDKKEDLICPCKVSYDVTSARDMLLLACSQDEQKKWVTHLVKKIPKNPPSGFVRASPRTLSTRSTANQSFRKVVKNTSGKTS
Outline: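 Human ROCK at 5 nM phosphorylated 27 μM myelin basic protein with 13 μM [γ-33P]ATP (final) in HEPES pH 7.5, MgCl2, NaCl, DTT and 1.5% DMSO. Reactions ran 2 h at room temperature before TCA quench and filter-plate scintillation counting. After background subtraction, data were fit to give Ki(app).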

[1] = enzyme inhibition, Ki(app), Table 5
[2] = Table 6, enzyme inhibition data (Ki)

| Structure (SMILES) | Ki (JAK3; enzyme inhibition, Table 5) | Ki (JAK2; enzyme inhibition, Table 5) | Ki (ROCK I; [1]) | Ki (JAK3; [2]) | Ki (JAK2; [2]) | Ki (ROCK I; [2]) |
| --- | --- | --- | --- | --- | --- | --- |
| CC(=O)Nc1ccccc1-c1c(Cl)cnc2[nH]ccc12 [compound 128] | > 5000 nM | > 5000 nM | 500 to 5000 nM |  |  |  |
| O=C(c1csc(-c2ccnc3[nH]ccc23)n1)N1CC=CC1 [compound 415] |  |  |  | 500 to 5000 nM | < 500 nM | < 500 nM |
| COC(=O)N1CCCC(Nc2c(Cl)cnc3[nH]ccc23)C1 (stereo not drawn) [compound 173] |  |  |  | < 500 nM | < 500 nM | 500 to 5000 nM |
| c1cc(-c2ccnc3[nH]ccc23)nc(N2CCc3ccccc3C2)c1 [compound 38, 2-(6-(1H-Pyrrolo[2,3-b]pyridin-4-yl)pyridin-2-yl)-1,2,3,4-tetrahydroisoquinoline] | 500 to 5000 nM | 500 to 5000 nM | 500 to 5000 nM |  |  |  |
| Cc1ccc(-c2ccnc3[nH]ccc23)c(C)c1 [compound 218] |  |  |  | 500 to 5000 nM | > 5000 nM | < 500 nM |
| O=C(NC1CCCCC1)c1cc(-c2ccnc3[nH]ccc23)c[nH]1 [compound 288] |  |  |  | < 500 nM | < 500 nM | < 500 nM |
| C#CCOC(=O)N1CCCC(Nc2c(Cl)cnc3[nH]ccc23)C1 (stereo not drawn) [compound 172] |  |  |  | < 500 nM | < 500 nM | 500 to 5000 nM |
| Clc1cnc2[nH]ccc2c1-c1cc2ccccc2o1 [compound 138] |  |  |  | < 500 nM | < 500 nM | > 4000 nM |
| Cn1cc(-c2c(Cl)cnc3[nH]ccc23)cn1 [compound 70, 5-Chloro-4-(1-methyl-1H-pyrazol-4-yl)-1H-pyrrolo[2,3b]pyridine] | < 500 nM | < 500 nM | 500 to 5000 nM |  |  |  |
| O=C(Cn1ccc2cnc(-c3ccnc4[nH]ccc34)nc21)NCC(F)(F)F [compound 424] |  |  |  | < 500 nM | < 500 nM | > 4000 nM |
| Clc1ccc(-c2ccnc3[nH]ccc23)cc1Cl [compound 41, 4-(3,4-Dichloro-phenyl)-1H-pyrrolo[2,3-b]pyridine] | 500 to 5000 nM | < 500 nM | < 500 nM |  |  |  |
| C=CCN(C(=O)c1cc(-c2c(F)cnc3[nH]ccc23)c[nH]1)C(C)c1ccccc1 (stereo not drawn) [compound 385] |  |  |  | < 500 nM | < 500 nM | 500 to 5000 nM |
| O=C(c1cc(-c2ccnc3[nH]ccc23)c[nH]1)N1CCCC1CO (stereo not drawn) [compound 362] |  |  |  | 500 to 5000 nM | < 500 nM | 500 to 5000 nM |
| COc1ccc(F)cc1-c1ccnc2[nH]ccc12 [compound 205] |  |  |  | 500 to 5000 nM | 500 to 5000 nM | 500 to 5000 nM |
| CCOc1cccc(-c2ccnc3[nH]ccc23)c1 [compound 249] |  |  |  | < 500 nM | < 500 nM | < 500 nM |
| N#CCC(=O)N1CC[C@H](Nc2c(Cl)cnc3[nH]ccc23)C1 [compound 191] |  |  |  | < 500 nM | < 500 nM | > 4000 nM |
| CCOc1ccccc1-c1ccnc2[nH]ccc12 [compound 223] |  |  |  | 500 to 5000 nM | 500 to 5000 nM | 500 to 5000 nM |
| Cc1ccc(C)c(-c2ccnc3[nH]ccc23)c1 [compound 209] |  |  |  | > 5000 nM | > 5000 nM | < 500 nM |
| Clc1ccc(-c2ccnc3[nH]ccc23)c(Cl)c1 [compound 210] |  |  |  | 500 to 5000 nM | 500 to 5000 nM | < 500 nM |
| Clc1cnc2[nH]ccc2c1-c1csc2ccccc12 [compound 142] |  |  |  | < 500 nM | < 500 nM | 500 to 5000 nM |

Results, then the molecule that gave them:

| Ki (JAK3; enzyme inhibition, Table 5) | Ki (JAK2; enzyme inhibition, Table 5) | Ki (ROCK I; [1]) | Ki (JAK3; [2]) | Ki (JAK2; [2]) | Ki (ROCK I; [2]) | Structure (SMILES) |
| --- | --- | --- | --- | --- | --- | --- |
| 500 to 5000 nM | < 500 nM | 500 to 5000 nM |  |  |  | O=C(Nc1cccc(-c2ccnc3[nH]ccc23)n1)c1ccccc1 [compound 100, N-(6-(1H-pyrrolo[2,3-b]pyridine-4-yl)pyridin-2-yl)benzamide] |
|  |  |  | < 500 nM | < 500 nM | > 4000 nM | CC(C)(C)OC(=O)N1CCC[C@@H](Nc2c(Cl)cnc3[nH]ccc23)C1 [compound 164] |
|  |  |  | < 500 nM | < 500 nM | 500 to 5000 nM | CCN(Cc1ccccc1)C(=O)c1cc(-c2c(Cl)cnc3[nH]ccc23)c[nH]1 [compound 344] |
| < 500 nM | < 500 nM | < 500 nM |  |  |  | CC(C)(C(=O)CC#N)c1cccc(-c2ccnc3[nH]ccc23)n1 [compound 125, 4-(6-(1H-pyrrolo[2,3-b]pyridin-4-yl)pyridin-2-yl)-4-methyl-3-oxopentanitrile] |
|  |  |  | < 500 nM | 500 to 5000 nM | > 4000 nM | O=C(CNc1nc(-c2ccnc3[nH]ccc23)ncc1F)NCC(F)(F)F [compound 192] |
| 500 to 5000 nM | < 500 nM | < 500 nM |  |  |  | CC1CCCN(c2cccc(-c3ccnc4[nH]ccc34)n2)C1 (stereo not drawn) [compound 25, 4-(6-(3-Methylpiperidin-1-yl)pyridin-2-yl)-1H-pyrrolo[2,3-b]pyridine] |
|  |  |  | < 500 nM | < 500 nM | < 500 nM | CCCN(CCC#N)C(=O)c1ccc(-c2ccnc3[nH]ccc23)s1 [compound 320] |
|  |  |  | < 500 nM | < 500 nM | < 500 nM | C#CCN(C)C(=O)c1ccc(-c2ccnc3[nH]ccc23)s1 [compound 323] |
|  |  |  | < 500 nM | < 500 nM | < 500 nM | CNC(=O)c1ccc(-c2ccnc3[nH]ccc23)cc1 [compound 272] |
|  |  |  | > 5000 nM | > 5000 nM | > 4000 nM | CC(C)(C)OC(=O)n1c(-c2c(Cl)cnc3[nH]ccc23)cc2ccccc21 [compound 147] |
|  |  |  | < 500 nM | < 500 nM | 500 to 5000 nM | CCCNC(=O)c1cc(-c2c(Cl)cnc3[nH]ccc23)c[nH]1 [compound 279] |
| < 500 nM | < 500 nM | 500 to 5000 nM |  |  |  | CC1CC=C(c2c(Cl)cnc3[nH]ccc23)C1C (stereo not drawn) [compound 90] |
|  |  |  | < 500 nM | < 500 nM | 500 to 5000 nM | CCN(Cc1ccccn1)C(=O)c1cc(-c2ccnc3[nH]ccc23)c[nH]1 [compound 305] |
|  |  |  | < 500 nM | < 500 nM | > 4000 nM | CC(C)CN(CC(C)C)C(=O)c1cc(-c2c(Cl)cnc3[nH]ccc23)c[nH]1 [compound 342] |
|  |  |  | < 500 nM | < 500 nM | > 4000 nM | Clc1cnc2[nH]ccc2c1Nc1cccc(-c2cnco2)c1 [compound 156] |
| < 500 nM | 500 to 5000 nM | < 500 nM |  |  |  | CN(C)Cc1cccc(-c2ccnc3[nH]ccc23)c1 [compound 85, Dimethyl-[3-(1H-pyrrolo[2,3-b]pyridin-4-yl)-benzyl]-amine] |
|  |  |  | < 500 nM | < 500 nM | > 4000 nM | Clc1ccc(-c2c(Cl)cnc3[nH]ccc23)s1 [compound 141] |
|  |  |  | 500 to 5000 nM | 500 to 5000 nM | > 4000 nM | FC(F)(F)Oc1ccccc1-c1ccnc2[nH]ccc12 [compound 206] |
|  |  |  | < 500 nM | < 500 nM | < 500 nM | CCN(Cc1ccncc1)C(=O)c1cc(-c2ccnc3[nH]ccc23)c[nH]1 [compound 369] |
| < 500 nM | < 500 nM | 500 to 5000 nM |  |  |  | Clc1cnc2[nH]ccc2c1C1=CCCCC1 [compound 29, 5-Chloro-4-cyclohexenyl-1H-pyrrolo[2,3b]pyridine] |
| < 500 nM | < 500 nM | 500 to 5000 nM |  |  |  | CC(=O)N1[C@H](C)CN(c2cccc(-c3ccnc4[nH]ccc34)n2)C[C@@H]1C [compound 22] |
|  |  |  | > 5000 nM | > 5000 nM | > 4000 nM | CCNC(=O)c1ccccc1-c1ccnc2[nH]ccc12 [compound 257] |
|  |  |  | < 500 nM | < 500 nM | 500 to 5000 nM | CCCN(CC1CC1)C(=O)c1cc(-c2c(Cl)cnc3[nH]ccc23)c[nH]1 [compound 334] |
